# Experimental data from ChEMBL document CHEMBL3826909, “Quinoxaline-based inhibitors of Ebola and Marburg VP40 egress” (Bioorg Med Chem Lett, 2016).
# Active and inactive are the calls of the source. No cut-off for these calls is given here.
# Experiments:
# [1] = target: T1, Matrix protein VP40 (Lake Victoria marburgvirus (strain Ravn-87) (MARV) (Marburg virus (strainKenya/Ravn/1987))) (UniProt Q1PDC8); test: Inhibition of Marburg virus VP40 PPxY L-domain motif expressed in HEK293T cells assessed as reduction in VLP budding at 30 nM after 24 hrs by Western blot analysis relative to control; format: cell-based; conditions: HEK-293T
# T1 sequence (whole entry): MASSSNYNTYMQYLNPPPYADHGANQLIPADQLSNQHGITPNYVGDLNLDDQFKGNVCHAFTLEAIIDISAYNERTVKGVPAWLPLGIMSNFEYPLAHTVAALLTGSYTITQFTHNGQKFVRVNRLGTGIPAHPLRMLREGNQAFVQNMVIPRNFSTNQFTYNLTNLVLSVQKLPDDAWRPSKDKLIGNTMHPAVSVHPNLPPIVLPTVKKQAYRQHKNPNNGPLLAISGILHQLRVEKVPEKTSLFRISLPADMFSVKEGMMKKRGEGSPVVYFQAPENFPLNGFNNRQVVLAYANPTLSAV
# [2] = Cytotoxicity against human HEK293T cells assessed as cell viability at 10 uM after 24 hrs by MTT assay relative to control; format: cell-based, HEK-293T; conditions: read-out: Activity
# [3] = Cytotoxicity against African green monkey Vero E6 cells assessed as cell viability at 0.01 uM after 24 hrs by MTT assay relative to control; format: cell-based; conditions: chlorocebus sabaeus, read-out: Activity
# [4] = target: T1, Matrix protein VP40 (Lake Victoria marburgvirus (strain Ravn-87) (MARV) (Marburg virus (strainKenya/Ravn/1987))); test: Inhibition of Marburg virus VP40 PPxY L-domain motif expressed in HEK293T cells assessed as reduction in VLP budding at 1 uM relative to control; format: cell-based; conditions: HEK-293T
# Cytochrome P450 3A4 = Cytochrome P450 3A4 (Homo sapiens, UniProt P08684); test: Inhibition of CYP3A4 (unknown origin) using midazolam as substrate; format: ADME
# Cytochrome P450 3A4, sequence (P08684 whole entry): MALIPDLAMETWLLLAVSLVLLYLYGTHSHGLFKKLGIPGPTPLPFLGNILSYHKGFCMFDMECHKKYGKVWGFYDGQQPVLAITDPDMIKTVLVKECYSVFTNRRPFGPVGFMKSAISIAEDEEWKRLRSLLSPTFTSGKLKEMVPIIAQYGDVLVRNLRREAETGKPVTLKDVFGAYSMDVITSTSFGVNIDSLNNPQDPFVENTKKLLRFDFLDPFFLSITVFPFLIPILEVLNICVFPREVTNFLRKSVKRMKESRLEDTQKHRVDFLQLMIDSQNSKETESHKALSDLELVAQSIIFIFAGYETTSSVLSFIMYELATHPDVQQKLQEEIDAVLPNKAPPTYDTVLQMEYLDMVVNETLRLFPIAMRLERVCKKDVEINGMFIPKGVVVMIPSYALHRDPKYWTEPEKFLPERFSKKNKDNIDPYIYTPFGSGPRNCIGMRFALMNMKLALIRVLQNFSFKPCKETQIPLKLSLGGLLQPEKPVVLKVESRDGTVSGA
# [5] = Cytotoxicity against human HEK293T cells assessed as cell viability at 0.01 uM after 24 hrs by MTT assay relative to control; format: cell-based, HEK-293T; conditions: read-out: Activity
# [6] = Half life in mouse liver microsomes; format: ADME
# [7] = Cytotoxicity against human HEK293T cells assessed as cell viability at 0.1 uM after 24 hrs by MTT assay relative to control; format: cell-based, HEK-293T; conditions: read-out: Activity
# [8] = Cytotoxicity against African green monkey Vero E6 cells assessed as cell viability at 0.1 uM after 24 hrs by MTT assay relative to control; format: cell-based; conditions: chlorocebus sabaeus, read-out: Activity
# [9] = Cytotoxicity against African green monkey Vero E6 cells assessed as cell viability at 1 uM after 24 hrs by MTT assay relative to control; format: cell-based; conditions: chlorocebus sabaeus, read-out: Activity
# [10] = target: T1, Matrix protein VP40 (Lake Victoria marburgvirus (strain Ravn-87) (MARV) (Marburg virus (strainKenya/Ravn/1987))); test: Inhibition of Marburg virus VP40 PPxY L-domain motif expressed in HEK293T cells assessed as reduction in VLP budding at 0.3 uM relative to control; format: cell-based; conditions: HEK-293T
# [11] = Intrinsic clearance in mouse liver microsomes assessed per mg of protein; format: ADME
# [12] = Cytotoxicity against African green monkey Vero E6 cells assessed as cell viability at 10 uM after 24 hrs by MTT assay relative to control; format: cell-based; conditions: chlorocebus sabaeus, read-out: Activity
# Liver microsome [13] = test: Half life in human liver microsomes; format: ADME
# [14] = target: T1, Matrix protein VP40 (Lake Victoria marburgvirus (strain Ravn-87) (MARV) (Marburg virus (strainKenya/Ravn/1987))); test: Inhibition of Marburg virus VP40 PPxY L-domain motif expressed in HEK293T cells assessed as reduction in VLP budding at 0.1 uM relative to control; format: cell-based; conditions: HEK-293T
# [15] = Cytotoxicity against human HEK293T cells assessed as cell viability at 1 uM after 24 hrs by MTT assay relative to control; format: cell-based, HEK-293T; conditions: read-out: Activity
# [16] = target: T1, Matrix protein VP40 (Lake Victoria marburgvirus (strain Ravn-87) (MARV) (Marburg virus (strainKenya/Ravn/1987))); test: Inhibition of Marburg virus VP40 PPxY L-domain motif expressed in HEK293T cells assessed as reduction in VLP budding at 0.03 uM relative to control; format: cell-based; conditions: HEK-293T
# [17] = target: T1, Matrix protein VP40 (Lake Victoria marburgvirus (strain Ravn-87) (MARV) (Marburg virus (strainKenya/Ravn/1987))); test: Inhibition of Marburg virus VP40 PPxY L-domain motif expressed in HEK293T cells assessed as reduction in VLP budding at 100 nM after 24 hrs by Western blot analysis; format: cell-based; conditions: HEK-293T
# Liver microsome [18] = test: Intrinsic clearance in human liver microsomes assessed per mg of protein; format: ADME
# HEK-293T [19] = test: Inhibition of Ebola virus VP40 PPxY L-domain motif expressed in HEK293T cells assessed as reduction in VLP budding at 100 nM after 24 hrs by Western blot analysis relative to control; format: cell-based; conditions: Ebolavirus
# HEK-293T [20] = test: Inhibition of Ebola virus VP40 PPxY L-domain motif expressed in HEK293T cells assessed as reduction in VLP budding at 30 nM after 24 hrs by Western blot analysis relative to control; format: cell-based; conditions: Ebolavirus
# [21] = Effect on cellular protein levels in human HEK293T cells infected with recombinant Vesicular stomatitis virus-M40 expressing Ebola virus VP40 PPxY L-domain motif at 30 to 100 nM after 8 hrs by Western blot analysis relative to control; format: ADME, cell-based; conditions: hek-293t, 0.1 µM
# [22] = tested on: Vesicular stomatitis virus; test: Effect on viral protein levels in recombinant Vesicular stomatitis virus-M40 expressing Ebola virus VP40 PPxY L-domain motif infected in HEK293T cells at 30 to 100 nM after 8 hrs by Western blot analysis relative to control; format: ADME, organism-based; conditions: hek-293t, 0.1 µM
# [23] = target: T1, Matrix protein VP40 (Lake Victoria marburgvirus (strain Ravn-87) (MARV) (Marburg virus (strainKenya/Ravn/1987))); test: Inhibition of Marburg virus VP40 PPxY L-domain motif-Nedd4 interaction in HEK293T cells coexpressing NYFP-Nedd4 and CYFP-mVP40 at 0.1 uM by inverted confocal microscopy based bimolecular complementation assay; format: cell-based; conditions: HEK-293T
compound,measurement,setting,value
Cc1ccc(NC(=O)NC(=O)CSc2nc3ccccc3nc2C)cc1,fold change (FC),[1],15
same,"viability at 24 h, 10 µM",[2],52.8%
same,"viability at 24 h, 0.01 µM",[3],98.4%
same,inhibition,[4],100%
same,IC50,Cytochrome P450 3A4,> 33 µM
same,"viability at 24 h, 0.01 µM",[5],98.3%
same,t1/2,[6],< 1.4 min
same,"viability at 24 h, 0.1 µM",[7],81.9%
same,"viability at 24 h, 0.1 µM",[8],93.9%
same,"viability at 24 h, 1 µM",[9],78.5%
same,inhibition,[10],100%
same,CLH,[11],> 50 mL/min
same,"viability at 24 h, 10 µM",[12],69.8%
same,t1/2,Liver microsome [13],57.7 min
same,inhibition,[14],100%
same,"viability at 24 h, 1 µM",[15],61.8%
same,inhibition,[16],93%
same,inhibition,[17],> 90%
same,Intrinsic clearance,Liver microsome [18],0.95 mL/min
Cc1nc2ccccc2nc1SCC(=O)NC(=O)Nc1ccccc1Cl,inhibition,[1],Active
same,"viability at 24 h, 10 µM",[2],65.4%
same,"viability at 24 h, 0.01 µM",[3],101%
same,IC50,Cytochrome P450 3A4,> 33 µM
same,"viability at 24 h, 0.01 µM",[5],96.9%
same,inhibition,HEK-293T [19],Active
same,t1/2,[6],2 min
same,"viability at 24 h, 0.1 µM",[7],69.3%
same,inhibition,HEK-293T [20],Active
same,"viability at 24 h, 0.1 µM",[8],101%
same,"viability at 24 h, 1 µM",[9],79.1%
same,"viability at 24 h, 10 µM",[12],80.9%
same,Activity,[21],Non-toxic
same,Activity,[22],Non-toxic
same,inhibition,[23],Active
same,t1/2,Liver microsome [13],76.1 min
same,inhibition,[14],99%
same,"viability at 24 h, 1 µM",[15],63.9%
same,inhibition,[16],93%
same,inhibition,[17],Active
same,Intrinsic clearance,Liver microsome [18],0.72 mL/min
